Measurements from EP0908457B1, “3-(1,2-benzisothiazol- and isoxazol-5-Y1)-2,4(1H,3H)-pyrimidinedione or thione and 3-(1,2-benzisothiazol- and isoxazol-5-y1)-4(3H)-pyrimidinone or thione herbicidal agents” (BASF AKTIENGESELLSCHAFT, priority 1997, dated 1999).

Key:
[1] = test system: Echinochloa oryzoides (Ard.) Fritsch.; experiment: Preemergence weed control under flooded paddy conditions, ECHORC (Watergrass (Calif.)); type: in vivo; details: preemergence weeds, flooded paddy, herbicidal effect rating 0-9, three to four weeks after treatment
Cyperus iria = experiment: Preemergence weed control under flooded paddy conditions, CYPIR (Rice Flatsedge); type: in vivo; details: preemergence weeds, flooded paddy, herbicidal effect rating 0-9, three to four weeks after treatment
[2] = test system: Cyperus serotinus, Rottb.; experiment: Preemergence weed control under flooded paddy conditions, CYPSE (Flatsedge); type: in vivo; details: preemergence weeds, herbicidal effect rating 0-9, three to four weeks after treatment
[3] = test system: Monochoria vaginalis, Presl.; experiment: Preemergence weed control under flooded paddy conditions, MOOVA (Monochoria); type: in vivo; details: preemergence weeds, flooded paddy, herbicidal effect rating 0-9, three to four weeks after treatment
Sagittaria pygmaea, L. = experiment: Preemergence weed control under flooded paddy conditions, SAGPY (Arrowhead (Pygmaea)); type: in vivo; details: preemergence weeds, flooded paddy, herbicidal effect rating 0-9, three to four weeks after treatment
[4] = test system: Oryza sativa, (L.) Tebonnet; experiment: Rice tolerance to post-transplant applications under flooded paddy conditions (Example 187), ORYSAT (Rice, Tebonnet); details: herbicidal effect rating 0-9, three to four weeks after treatment

Row | Structure (SMILES) | ECHORC ([1]; 0.0320 kg/ha) | ECHORC ([1]; 0.0620 kg/ha) | ECHORC ([1]; 0.1250 kg/ha) | ECHORC ([1]; 0.2500 kg/ha) | CYPIR (Cyperus iria; 0.0320 kg/ha) | CYPIR (Cyperus iria; 0.0620 kg/ha) | CYPIR (Cyperus iria; 0.1250 kg/ha) | CYPIR (Cyperus iria; 0.2500 kg/ha) | CYPSE ([2]; 0.0620 kg/ha) | CYPSE ([2]; 0.2500 kg/ha) | MOOVA ([3]; 0.0320 kg/ha) | MOOVA ([3]; 0.0620 kg/ha) | MOOVA ([3]; 0.1250 kg/ha) | MOOVA ([3]; 0.2500 kg/ha) | SAGPY (Sagittaria pygmaea, L.; 0.0320 kg/ha) | SAGPY (Sagittaria pygmaea, L.; 0.0620 kg/ha) | SAGPY (Sagittaria pygmaea, L.; 0.1250 kg/ha) | SAGPY (Sagittaria pygmaea, L.; 0.2500 kg/ha) | ORYSAT ([4]; 0.0320 kg/ha) | ORYSAT ([4]; 0.0620 kg/ha) | also measured
1 | COC(=O)C(C)Oc1cc2c(cc1-c1nsc3ccc(-n4c(=O)cc(C(F)(F)F)n(C)c4=O)cc13)CCC2 (stereo not drawn) [Example 435, Propionic acid, 2-{{6-{5-[3,6-dihydro-3-methyl-2,6-dioxo-4-(trifluoromethyl)-1(2H)-pyrimidinyl]-1,2-benzisothiazol-3-yl}-5-indanyl}oxy}-, methyl ester] | 5.0 | 7.0 | 7.0 | 9.0 | 0.0 | 0.0 | 2.0 | 3.0 | 0.0 | 2.0 | 9.0 | 9.0 | 9.0 | 9.0 | 0.0 | 0.0 | 0.0 | 6.0 | 2.0 | 1.0 | CYPSE ([2]; 0.1250 kg/ha): 3.0; ORYSAT ([4]; 0.1250 kg/ha): 2.0; ORYSAT ([4]; 0.2500 kg/ha): 2.0
2 | C#CCOC(=O)COc1cc2c(cc1-c1nsc3ccc(-n4c(=O)cc(C(F)(F)F)n(C)c4=O)cc13)CCC2 [Example 436, Acetic acid, {{6-{5-[3,6-dihydro-3-methyl-2,6-dioxo-4-(trifluoromethyl)-1(2H)-pyrimidinyl]-1,2-benzisothiazol-3-yl}-5-indanyl}oxy}-, 2-propynyl ester] | 6.0 | 9.0 | 9.0 | 9.0 | 0.0 | 2.0 | 7.0 | 7.0 | 6.0 | 6.0 | 9.0 | 9.0 | 9.0 | 9.0 | 0.0 | 0.0 | 2.0 | 3.0 | 3.0 | 5.0 | CYPSE ([2]; 0.0320 kg/ha): 4.0; ORYSAT ([4]; 0.1250 kg/ha): 7.0; ORYSAT ([4]; 0.2500 kg/ha): 6.0
3 | Cc1ccc(OCC(=O)N(C)S(C)(=O)=O)c(-c2nsc3ccc(-n4c(=O)cc(C(F)(F)F)n(C)c4=O)cc23)c1 [Example 437, Acetamide, 2-{{2-{5-[3,6-dihydro-3-methyl-2,6-dioxo-4-(trifluoromethyl)-1(2H)-pyrimidinyl]-1,2-benzisothiazol-3-yl}-p-tolyl}oxy}-N-methyl-N-(methylsulfonyl)-] | 5.0 | 7.0 | 7.0 | 8.0 | 0.0 | 0.0 | 4.0 | 6.0 | 2.0 | 7.0 | 9.0 | 9.0 | 9.0 | 9.0 | 0.0 | 3.0 | 4.0 | 7.0 | 4.0 | 5.0 | CYPSE ([2]; 0.0320 kg/ha): 0.0; CYPSE ([2]; 0.1250 kg/ha): 3.0; ORYSAT ([4]; 0.1250 kg/ha): 6.0; ORYSAT ([4]; 0.2500 kg/ha): 7.0
4 | CN(C(=O)COc1ccccc1-c1nsc2ccc(-n3c(=O)cc(C(F)(F)F)n(C)c3=O)cc12)S(C)(=O)=O [Example 438, Acetamide, 2-{o-{5-[3,6-dihydro-3-methyl-2,6-dioxo-4-(trifluoromethyl)-1(2H)-pyrimidinyl]-1,2-benzisothiazol-3-yl}phenoxy}-N-methyl-N-(methylsulfonyl)-] | 7.0 | 8.0 | 9.0 | 9.0 | 4.5 | 6.5 | 8.5 | 9.0 | 9.0 | 9.0 | 8.0 | 8.5 | 9.0 | 9.0 | 2.0 | 3.5 | 8.5 | 9.0 | 4.0 | 5.0 | CYPSE ([2]; 0.0320 kg/ha): 4.5; CYPSE ([2]; 0.1250 kg/ha): 7.0; ORYSAT ([4]; 0.1250 kg/ha): 7.0; ORYSAT ([4]; 0.2500 kg/ha): 8.0
5 | Cn1c(C(F)(F)F)cc(=O)n(-c2ccc3snc(C(=O)Nc4nc(C(F)(F)F)c(Cl)s4)c3c2)c1=O [Example 439, 1,2-Benzisothiazole-3-carboxamide, N-[5-chloro-4-(trifluoromethyl)thiazol-2-yl]-5-[3,6-dihydro-3-methyl-2,6-dioxo-4-(trifluoromethyl)-1(2H)-pyrimidinyl]-] | 2.0 | 3.0 | 6.0 | 6.0 | 1.0 | 3.0 | 4.0 | 5.0 | 0.0 | 0.0 | 5.0 | 6.0 | 7.0 | 7.0 | 0.0 | 0.0 | 0.0 | 3.0 | 0.0 | 0.0 | CYPSE ([2]; 0.0320 kg/ha): 0.0; CYPSE ([2]; 0.1250 kg/ha): 0.0; ORYSAT ([4]; 0.1250 kg/ha): 0.0; ORYSAT ([4]; 0.2500 kg/ha): 0.0
6 | CCOCN(C(=O)c1nsc2ccc(-n3c(=O)cc(C(F)(F)F)n(C)c3=O)cc12)S(=O)(=O)Cc1ccccc1 [Example 440, 1,2-Benzisothiazole-3-carboxamide, N-(benzylsulfonyl)-5-[3,6-dihydro-3-methyl-2,6-dioxo-4-(trifluoromethyl)-1(2H)-pyrimidinyl]-N-(ethoxymethyl)-] | 5.0 | 7.0 | 9.0 | 9.0 | 5.0 | 9.0 | 9.0 | 9.0 | 9.0 | 9.0 | 7.0 | 9.0 | 9.0 | 9.0 | 4.0 | 6.0 | 7.0 | 9.0 | 3.0 | 4.0 | CYPSE ([2]; 0.0320 kg/ha): 6.0; CYPSE ([2]; 0.1250 kg/ha): 9.0; ORYSAT ([4]; 0.1250 kg/ha): 4.0; ORYSAT ([4]; 0.2500 kg/ha): 4.0
7 | COC(=O)CN(C(=O)c1nsc2ccc(-n3c(=O)cc(C(F)(F)F)n(C)c3=O)cc12)S(=O)(=O)Cc1ccccc1 [Example 441, Glycine, N-(benzylsulfonyl)-N-{{5-[3,6-dihydro-3-methyl-2,6-dioxo-4-(trifluoromethyl)-1(2H)-pyrimidinyl]-1,2-benzisothiazol-3-yl}carbonyl}-, methyl ester] | 0.0 | 0.0 | 0.0 | 3.0 | 4.0 | 6.0 | 9.0 | 9.0 | 0.0 | 7.0 | 9.0 | 9.0 | 9.0 | 9.0 | 0.0 | 2.0 | 3.0 | 6.0 | 0.0 | 0.0 | CYPSE ([2]; 0.1250 kg/ha): 4.0; ORYSAT ([4]; 0.1250 kg/ha): 2.0; ORYSAT ([4]; 0.2500 kg/ha): 3.0
